How the values were obtained:
Assay type in all cases: functional, cell-based
[1] = test system: HuTu80; assay: Inhibition of cell growth against HuTu 80 human gastrointestinal adenocarcinoma cell lines in vitro
[2] = test system: WiDr; assay: Inhibition of cell growth against WIDR human gastrointestinal adenocarcinoma cell lines in vitro
[3] = test system: SW480; assay: Inhibition of cell growth against SW480 human gastrointestinal adenocarcinoma cell lines in vitro
[4] = test system: HT-29; assay: Inhibition of cell growth against HT-29 human gastrointestinal adenocarcinoma cell lines in vitro

SMILES	IC50 [3] [µM]	IC50 [4] [µM]	IC50 [1] [µM]	IC50 [2] [µM]
Cc1c(NCc2ccc(C(=O)NC(CCC(=O)O)C(=O)O)cc2)ccc2nc(N)nc(O)c12 (stereo unspecified)	–	–	4	–
Nc1nc(=O)c2cc(NCc3ccc(C(=O)NC(CCC(=O)O)C(=O)O)cc3)ccc2[nH]1 (stereo unspecified)	4.5	1.7	4.5	4.2
CN(Cc1cnc2nc(N)nc(N)c2n1)c1ccc(C(=O)N[C@@H](CCC(=O)O)C(=O)O)cc1 [METHOTREXATE]	–	–	0.009	–

Now from value to compound, other results behind:

IC50 [3] [µM]	IC50 [4] [µM]	SMILES	IC50 [1] [µM]	IC50 [2] [µM]
0.005	0.003	Cc1c(CNc2ccc(C(=O)NC(CCC(=O)O)C(=O)O)cc2)ccc2nc(N)nc(N)c12 (stereo unspecified)	0.0034	0.005
0.056	0.06	Cc1c(NCc2ccc(C(=O)NC(CCC(=O)O)C(=O)O)cc2)ccc2nc(N)nc(N)c12 (stereo unspecified)	0.047	0.071
0.002	0.0023	Nc1nc(N)c2c(Cl)c(CNc3ccc(C(=O)NC(CCC(=O)O)C(=O)O)cc3)ccc2n1 (stereo unspecified)	0.0019	0.0021
0.02	0.025	Nc1nc(N)c2c(Cl)c(NCc3ccc(C(=O)NC(CCC(=O)O)C(=O)O)cc3)ccc2n1 (stereo unspecified)	0.022	0.024
38	6.7	Nc1nc(O)c2c(Cl)c(NCc3ccc(C(=O)NC(CCC(=O)O)C(=O)O)cc3)ccc2n1 (stereo unspecified)	8.5	11

Reference: ChEMBL document CHEMBL1123821, “Synthesis of 5-chloro-5,8-dideaza analogues of folic acid and aminopterin targeted for colon adenocarcinoma” (J Med Chem, 1987)
